Experimental data as given in patent publication US12727599B2, “Use of cyclodextrins as agrochemical delivery system” (priority 2018, dated 2026).

How the values were obtained:
[1] = Complexation ability of cyclodextrins with chlorantraniliprole; format: physicochemical
[2] = Phase solubility isotherms of folpet-cyclodextrin complexes; format: physicochemical; conditions: with folpet
Method: The weight ratio of folpet to cyclodextrin was approximately 1:2. The content of folpet in the complex was determined by HPLC. Phase solubility isotherms were carried out for the folpet-cyclodextrin complexes.

## OC[C@H]1O[C@@H]2O[C@H]3[C@H](O)[C@@H](O)[C@@H](O[C@H]4[C@H](O)[C@@H](O)[C@@H](O[C@H]5[C@H](O)[C@@H](O)[C@@H](O[C@H]6[C@H](O)[C@@H](O)[C@@H](O[C@H]7[C@H](O)[C@@H](O)[C@@H](O[C@H]1[C@H](O)[C@H]2O)O[C@@H]7CO)O[C@@H]6CO)O[C@@H]5CO)O[C@@H]4CO)O[C@@H]3CO [Alpha-cyclodextrin, alpha cyclodextrin]
[1]
  complexation ability: highest complexation ability

## methyl-beta-cyclodextrin [RAMEB cyclodextrin]
[2]
  complexation ability: highest complexation ability
